The record followed here is patent US20240247021A1, “CRYSTAL FORMS OF KUDING SAPONIN A COMPOUND, PHARMACEUTICAL COMPOSITION AND USE THEREOF” (SHANGHAI KE PHARMACEUTICAL CO., LTD, priority 2021, published 2024).

The structures appear in SMILES notation.

The data set is described as follows: Conditions under which the crystal forms exist stably. It counts as physicochemical.
For the compound `C[C@@H]1O[C@@H](O[C@H]2[C@H](O[C@H]3CC[C@]4(C)[C@H]5C[C@H](O)C6=C7[C@]8(CC[C@](C)(OC8=O)[C@@]7(C)O)CC[C@@]6(C)[C@]5(C)CC[C@H]4C3(C)C)OC[C@H](O)[C@@H]2O[C@@H]2O[C@H](CO)[C@@H](O)[C@H](O)[C@H]2O)[C@H](O)[C@H](O)[C@H]1O` [crystal form D, Kudinoside A], the “conditions under which the crystal form exists stably” value was “can only exist stably when the sample is wet”.
Under `C[C@@H]1O[C@@H](O[C@H]2[C@H](O[C@H]3CC[C@]4(C)[C@H]5C[C@H](O)C6=C7[C@]8(CC[C@](C)(OC8=O)[C@@]7(C)O)CC[C@@]6(C)[C@]5(C)CC[C@H]4C3(C)C)OC[C@H](O)[C@@H]2O[C@@H]2O[C@H](CO)[C@@H](O)[C@H](O)[C@H]2O)[C@H](O)[C@H](O)[C@H]1O` [crystal form L, Kudinoside A] stands “can only exist stably at high temperature”.
Under `C[C@@H]1O[C@@H](O[C@H]2[C@H](O[C@H]3CC[C@]4(C)[C@H]5C[C@H](O)C6=C7[C@]8(CC[C@](C)(OC8=O)[C@@]7(C)O)CC[C@@]6(C)[C@]5(C)CC[C@H]4C3(C)C)OC[C@H](O)[C@@H]2O[C@@H]2O[C@H](CO)[C@@H](O)[C@H](O)[C@H]2O)[C@H](O)[C@H](O)[C@H]1O` [crystal form B, Kudinoside A] stands “can only exist stably at high temperature”; under `C[C@@H]1O[C@@H](O[C@H]2[C@H](O[C@H]3CC[C@]4(C)[C@H]5C[C@H](O)C6=C7[C@]8(CC[C@](C)(OC8=O)[C@@]7(C)O)CC[C@@]6(C)[C@]5(C)CC[C@H]4C3(C)C)OC[C@H](O)[C@@H]2O[C@@H]2O[C@H](CO)[C@@H](O)[C@H](O)[C@H]2O)[C@H](O)[C@H](O)[C@H]1O` [crystal form E, Kudinoside A], “can only exist stably when the sample is wet”.
In the case of `C[C@@H]1O[C@@H](O[C@H]2[C@H](O[C@H]3CC[C@]4(C)[C@H]5C[C@H](O)C6=C7[C@]8(CC[C@](C)(OC8=O)[C@@]7(C)O)CC[C@@]6(C)[C@]5(C)CC[C@H]4C3(C)C)OC[C@H](O)[C@@H]2O[C@@H]2O[C@H](CO)[C@@H](O)[C@H](O)[C@H]2O)[C@H](O)[C@H](O)[C@H]1O` [crystal form G, Kudinoside A], the “conditions under which the crystal form exists stably” value is listed as “can only exist stably when the sample is wet”.
Under `C[C@@H]1O[C@@H](O[C@H]2[C@H](O[C@H]3CC[C@]4(C)[C@H]5C[C@H](O)C6=C7[C@]8(CC[C@](C)(OC8=O)[C@@]7(C)O)CC[C@@]6(C)[C@]5(C)CC[C@H]4C3(C)C)OC[C@H](O)[C@@H]2O[C@@H]2O[C@H](CO)[C@@H](O)[C@H](O)[C@H]2O)[C@H](O)[C@H](O)[C@H]1O` [crystal form I2, Kudinoside A] stands “cannot exist stably”.
